According to patent US6342500B1, “Post-Amadori inhibitors of Advanced Glycation reactions” (Kansas University Medical Center, priority 1999, dated 2002):
Like-named read-outs stand apart in the source and are kept apart here.

Assays:
[1] = system: conversion of Amadori compounds to post Amadori advanced glycation endproducts (bovine serum albumin glycated by ribose); experiment: Interrupted glycation: post-Amadori AGE formation of bovine serum albumin by ribose; type: biochemical
Description: FIG. 2 is graph depicting the effect of dipyridoxylamine (BST-4500) on post-Amadori AGE formation during interrupted glycation of bovine serum albumin by ribose. Modification with ribose was done at 37° C. in 0.2 M phosphate buffer of pH 7.5 containing 0.02% sodium azide. The solutions were kept in capped tubes and opened only to remove timed aliquots that were immediately frozen for later carrying out the various analyses. “Interrupted glycation” experiments were carried out by first incubating protein with the ribose at 37° C. for 8 or 24 h, followed by immediate and extensive dialysis against frequent cold buffer changes at 4° C. The samples were then reincubated by quickly warming to 37° C. in the absence of external ribose. Aliquots were taken and frozen at various intervals for later analysis.
The interrupted glycation method for following post-Amadori kinetics of AGE formation allows for the rapid quantitative study of “late” stages of the glycation reaction. Importantly, this method allows for inhibition studies that are free of pathways of AGE formation which arise from glycoxidative products of free sugar or Schiff base (Namiki pathway).
In comparison, in a similar experiment, pyridoxamine inhibited the conversion of Amadori compounds to post Amadori advanced glycation endproducts with a half-maximal inhibitory concentration of approximately 3 mM. Thus, the post-Amadori-inhibitory activity of dipyridoxylaminc is approximately 750-fold greater than that of pyridoxamine.

[2] = system: normal human epidermal keratinocytes; experiment: Neutral red uptake bioassay using normal human epidermal keratinocytes; type: cell-based; details: for HuLC50: preliminarily estimated concentration for half-maximal toxicity, neutral red uptake, normal human epidermal keratinocytes
Description: A neutral red uptake bioassay using normal human epidermal keratinocytes was then conducted to preliminarily estimate the toxicity (HuLC50) of dipyridoxylamine relative to pyridoxamine. The bioassay was conducted according to standard protocols. (Borenfreund et al., J. Tissue Culture Methods 9:7-9, 1984; Heimann, et al., Cancer Res. 43:4856-4862, 1983; Shopsis et al., in “Alternative Methods in Toxicology,” Vol. 6, AM Goldberg (Ed), Mary Ann Liebert, Inc., N.Y., p. 253-263, 1988) The preliminarily estimated concentration for half-maximal toxicity was then divided by the half maximal inhibition of post-Amadori AGE formation to derive a therapeutic index ratio.

[3] = half maximal inhibition of post-Amadori AGE formation, read-out: IC50

SMILES: Cc1ncc(CO)c(CNCc2c(CO)cnc(C)c2O)c1O [Dipyridoxylamine]
- IC50 [1, 3]: 4 µM
- IC50 ([1]; interrupted glycation of BSA by ribose, 37° C., 0.2 M phosphate buffer pH 7.5, read-out: half-maximal inhibitory concentration for inhibiting the conversion of Amadori compounds to post Amadori advanced glycation endproducts): ~4 µM
- post-Amadori-inhibitory activity relative to pyridoxamine ([1]; ratio of half-maximal inhibitory concentrations, versus pyridoxamine): approximately 750 fold
- toxicity relative to pyridoxamine ([2]; neutral red uptake bioassay, in words): mildly more toxic than pyridoxamine
- HuLC50 [2]: 1.8 mM

SMILES: Cc1ncc(CO)c(CN)c1O [Pyridoxamine, pyridoxamine, reference compound]
- IC50 [1, 3]: 3000 µM
- IC50 ([1]; in a similar experiment (interrupted glycation), read-out: half-maximal inhibitory concentration for inhibiting the conversion of Amadori compounds to post Amadori advanced glycation endproducts): ~3000 µM
- HuLC50 [2]: 16.7 mM
